From ChEMBL document CHEMBL1146787, “Novel nonpeptidic inhibitors of HIV-1 protease obtained via a new multicomponent chemistry strategy” (Bioorg Med Chem Lett, 2004)

What was measured:
[1] = biological target: T1, Human immunodeficiency virus type 1 protease (Human immunodeficiency virus 1, UniProt Q72874); assay: Inhibitory concentration against Protease
[2] = biological target: T1, Human immunodeficiency virus type 1 protease; assay: Evaluated for inhibition of Protease after resynthesis and purification
[3] = biological target: T1, Human immunodeficiency virus type 1 protease; assay: Evaluated for inhibition of Protease from the crude plate mixture
[4] = biological target: T1, Human immunodeficiency virus type 1 protease; assay: Evaluated for inhibition of Protease after CLND/MS correction from the crude mixture

Row | SMILES | IC50 [1] [µM] | also measured
1 | CC(C)(C)NC(=O)C1(CCc2ccccc2)OC(O)=C(c2ccc(-c3ccccc3)cc2)C1=O (configuration not stated) | 27 | –
2 | CCCCNC(=O)C1(C)OC(O)=C(CCc2ccccc2)C1=O (configuration not stated) | > 100 | –
3 | CC(C1=C(O)OC(C(=O)NCCc2ccc(Cl)cc2)(C(C)C)C1=O)c1ccccc1 (configuration not stated) | 31 | –
4 | COCCNC(=O)C1(C)OC(O)=C(C(C)c2ccccc2)C1=O (configuration not stated) | 224 | –
5 | COc1cc(CC2=C(O)C(C)(C(=O)NC3CC3)OC2=O)cc(OC)c1OC (configuration not stated) | > 1000 | –
6 | CNC(=O)C1(C)OC(O)=C(C(C)c2ccccc2)C1=O (configuration not stated) | 244 | –
7 | C[C@H](C1=C(O)C(CCc2ccccc2)(C(=O)NCc2ccc(C(C)(C)C)cc2)OC1=O)c1ccccc1 (single isomer, unassigned) | 84 | IC50 [2]: 4.6 µM; IC50 [4]: 1.2 µM
8 | COc1cc(CC2=C(O)C(C)(C(=O)NC(C)(C)C)OC2=O)cc(OC)c1OC (configuration not stated) | > 1000 | –
9 | CC(C1=C(O)[C@@](CCc2ccccc2)(C(=O)NCc2ccc(C(C)(C)C)cc2)OC1=O)c1ccccc1 (some centres not stated) | 5 | –
10 | C[C@H](C1=C(O)[C@@](CCc2ccccc2)(C(=O)NCc2ccc(C(C)(C)C)cc2)OC1=O)c1ccccc1 | – | IC50 [2]: 5.4 µM
11 | CNC1=C(O)C(CCc2ccccc2)(C(=O)NCC2CCCO2)OC1=O (configuration not stated) | > 1000 | –
12 | CC1(C(=O)NC2CC2)OC(O)=C(CCc2ccccc2)C1=O (configuration not stated) | 294 | –
13 | CC(C)=CCCC(C)C1=C(O)C(C)(C(=O)NC(C)(C)C)OC1=O (configuration not stated) | 151 | –

Continued, in another order:

Row | IC50 [1] [µM] | SMILES | also measured
14 | 1 | CC(C)=CCCC(C)C1=C(O)C(CCc2ccccc2)(C(=O)NC(C)(C)C)OC1=O (configuration not stated) | IC50 [2]: 1.3 µM; IC50 [3]: 15 µM; IC50 [4]: 1.3 µM
15 | 4 | CC(C1=C(O)C(CCc2ccccc2)(C(=O)NC(C)(C)C)OC1=O)c1ccccc1 (configuration not stated) | IC50 [2]: 2 µM; IC50 [3]: 6 µM; IC50 [4]: 4.1 µM
16 | 105 | CC(C1=C(O)C(C)(C(=O)NC(C)(C)C)OC1=O)c1ccccc1 (configuration not stated) | –
17 | 11 | CC(C)(C)NC(=O)C1(CCc2ccccc2)OC(O)=C(Cc2ccccc2)C1=O (configuration not stated) | –
18 | 3 | CC(C)(C)NC(=O)C1(CCc2ccccc2)OC(O)=C(CCc2ccccc2)C1=O (configuration not stated) | –
19 | 107 | CC(C)(C)NC(=O)C1(CCc2ccccc2)OC(O)=C(c2c[nH]c3ccccc23)C1=O (configuration not stated) | –
20 | 47 | CN(C(=O)OC(C)(C)C)C1=C(O)C(CCc2ccccc2)(C(=O)NC(C)(C)C)OC1=O (configuration not stated) | –
21 | 193 | CN(C(=O)OC(C)(C)C)C1=C(O)C(CCc2ccccc2)(C(=O)NCC2CCCO2)OC1=O (configuration not stated) | –
22 | > 1000 | COc1cc(CC2=C(O)C(CCc3ccccc3)(C(=O)NCC(C)(C)C)OC2=O)cc(OC)c1OC (configuration not stated) | –
23 | 70 | CC(C)(C)NC(=O)C1(C)OC(O)=C(CCc2ccccc2)C1=O (configuration not stated) | –
24 | 17 | CC(C)(C)NC(=O)C1(CCc2ccccc2)OC(O)=C(c2ccc(C(C)(C)C)cc2)C1=O (configuration not stated) | –
